From ChEMBL document CHEMBL4428093, “One pot Click chemistry: A three component reaction for the synthesis of 2-mercaptobenzimidazole linked coumarinyl triazoles as anti-tubercular agents” (2016)
≈ marks a conversion by molar mass, not a printed value.

The molecules below were run on Mycobacterium tuberculosis (assay: Antituberculosis activity against Mycobacterium tuberculosis H37Rv after 5 days by MABA method). Conditions: 120 h.
Type: functional
`O=c1cc(Cn2cc(CSc3nc4ccccc4[nH]3)nn2)c2ccccc2[nH]1` showed an MIC of 32.2 µM (≈ 12.5 µg/mL). Molecule `Cc1cc(C)c2c(Cn3cc(CSc4nc5ccccc5[nH]4)nn3)cc(=O)oc2c1` has an MIC of 3.8 µM (≈ 1.59 µg/mL). With `Cc1cccc2c(Cn3cc(CSc4nc5ccccc5[nH]4)nn3)cc(=O)[nH]c12` the MIC was 7.7 µM (≈ 3.1 µg/mL). Work on `O=C(O)c1cn(C2CC2)c2cc(N3CCNCC3)c(F)cc2c1=O` [CIPROFLOXACIN] yielded an MIC of 9.4 µM (≈ 3.11 µg/mL). Molecule `O=c1cc(Cn2cc(CSc3nc4ccccc4[nH]3)nn2)c2ccc(Cl)cc2[nH]1` has an MIC of 14.8 µM (≈ 6.26 µg/mL). In the case of `COc1ccc2oc(=O)cc(Cn3cc(CSc4nc5ccccc5[nH]4)nn3)c2c1`, the MIC was 29.8 µM (≈ 12.5 µg/mL). With `Cc1ccc2oc(=O)cc(Cn3cc(CSc4nc5ccccc5[nH]4)nn3)c2c1` the MIC was 7.7 µM (≈ 3.11 µg/mL). `O=c1cc(Cn2cc(CSc3nc4ccccc4[nH]3)nn2)c2cc(Cl)ccc2[nH]1` gave an MIC of 29.6 µM (≈ 12.5 µg/mL). `O=c1cc(Cn2cc(CSc3nc4ccccc4[nH]3)nn2)c2ccc3ccccc3c2o1` showed an MIC of 28.4 µM (≈ 12.5 µg/mL). In the case of `O=c1cc(Cn2cc(CSc3nc4ccccc4[nH]3)nn2)c2c(ccc3ccccc32)o1`, the MIC was 14.2 µM (≈ 6.24 µg/mL). `Cc1ccc2c(Cn3cc(CSc4nc5ccccc5[nH]4)nn3)cc(=O)oc2c1` was tested, and the MIC was 7.7 µM (≈ 3.11 µg/mL). In the case of `COc1ccc2c(Cn3cc(CSc4nc5ccccc5[nH]4)nn3)cc(=O)oc2c1`, the MIC was 59.6 µM (≈ 25 µg/mL). `NC(=O)c1cnccn1` [PYRAZINAMIDE] gave an MIC of 25.3 µM (≈ 3.11 µg/mL). With `O=c1cc(Cn2cc(CSc3nc4ccccc4[nH]3)nn2)c2ccc(Cl)cc2o1` the MIC was 7.3 µM (≈ 3.09 µg/mL). Molecule `CN[C@@H]1[C@H](O[C@H]2[C@H](O[C@H]3[C@H](O)[C@@H](O)[C@H](N=C(N)N)[C@@H](O)[C@@H]3N=C(N)N)O[C@@H](C)[C@]2(O)C=O)O[C@@H](CO)[C@H](O)[C@H]1O` [STREPTOMYCIN] has an MIC of 10.7 µM (≈ 6.22 µg/mL). `Cc1ccc2c(Cn3cc(CSc4nc5ccccc5[nH]4)nn3)cc(=O)oc2c1C` showed an MIC of 3.8 µM (≈ 1.59 µg/mL). Molecule `O=c1cc(Cn2cc(CSc3nc4ccccc4[nH]3)nn2)c2ccc(O)cc2o1` has an MIC of 30.8 µM (≈ 12.5 µg/mL).

These molecules were tested on Mycobacterium tuberculosis (assay: Potency index, ratio of streptomycin MIC to compound MIC for Mycobacterium tuberculosis H37Rv). Conditions: not given.
Type: functional
Molecule `Cc1cc(C)c2c(Cn3cc(CSc4nc5ccccc5[nH]4)nn3)cc(=O)oc2c1` has a Ratio of 3. `Cc1ccc2c(Cn3cc(CSc4nc5ccccc5[nH]4)nn3)cc(=O)oc2c1C` gave a Ratio of 3.
